{"source": "patent US8759328B2", "about": "“Once-a-week administration of 25-hydroxy vitamin D3 to sustain elevated steady-state pharmacokinetic blood concentration” (Wisconsin Alumni Research Foundation, priority 2008, dated 2014)", "key": {"[1]": {"test": "Serum 25(OH)D3 (RIA) after 1×/weekly oral administration in vitamin D deficient rats", "assay_type": "in vivo, rat", "settings": "FIG. 9, 1×/weekly oral, 100, 1000 and 3000 mcg/kg body weight", "from_the_text": "FIG. 9 is a bar graph illustrating the increases in serum 25(OH)D3 occurring after 1×/weekly oral administration of 25(OH)D3 at 100, 1000 and 3000 mcg/kg body weight in vitamin D deficient rats. The rats were male, Sprague-Dawley rats (weanlings, n=4-6/group) received from a commercial supplier. The animals were placed in rooms that lacked light emissions in the UV range. The animals were fed diets lacking any vitamin D, whereby at 10 weeks of age the animals were randomly assigned to 3 groups and then orally dosed 1× every 7 days with vehicle (5% ethanol in Neobee oil) or 25(OH)D3 dissolved in ethanol and Neobee oil. Blood was collected at the times indicated in the graph and serum 25(OH)D3 concentrations were assessed using a commercially available RIA kit (DiaSorin of Stillwater, Minn.)."}, "[2]": {"settings": "rat, in vivo; cited from earlier work"}, "[3]": {"test": "Serum 25-(OH)D3 (RIA) after 1×/month oral administration in rats with normal vitamin D status", "assay_type": "in vivo, rat", "from_the_text": "FIG. 1 is a bar graph showing exemplary elevations of serum 25-(OH)D3 levels occurring after 1×/month oral administration of 25-(OH)D3 at 9 and 100 mcg/kgBW in rats with normal vitamin D status. The rats were male, Sprague-Dawley rats (9 weeks of age, n=15) received from a commercial supplier, and the animals were placed on a purified diet containing 0.47% calcium and allowed to acclimate for one week. After one week the animals were randomly assigned to 3 groups, bled (0 d), and then orally dosed 1× every 28 days with vehicle (5% ethanol in Neobee oil) or 25-(OH)D3 dissolved in ethanol and Neobee oil. Blood was again collected 4 hr, 24 hr, and 1, 2, 3 and 4 weeks after each single, oral dose was administered, and, serum 25-(OH)D3 concentrations were assessed using a commercially available RIA kit (DiaSorin of Stillwater, Minn.). FIG. 1 also contains data taken after 6 months of dosing.\nFIG. 5 is a bar graph illustrating the increases in serum 25(OH)D3 occurring after 1×/monthly oral administration of 25(OH)D3 at 1000 and 3000 mcg/kg body weight in rats with normal vitamin D status. The rats were male, Sprague-Dawley rats (9 weeks of age, n=4-6 animals/group) received from a commercial supplier. […] Blood was collected at the times indicated in the graph, and serum 25(OH)D3 concentrations were assessed using a commercially available RIA kit (DiaSorin of Stillwater, Minn.)."}, "[4]": {"test": "Serum total calcium after 1×/month oral administration in rats with normal vitamin D status", "assay_type": "in vivo, rat", "from_the_text": "FIG. 2 is a bar graph showing no change in serum calcium occurring after […] oral administration of 25-(OH)D3 in rats with normal vitamin D status. The rats were male, Sprague-Dawley rats (9 weeks of age, n=15) received from a commercial supplier. The animals were placed on a purified diet containing 0.47% calcium and allowed to acclimate for one week. After one week the animals were randomly assigned to 3 groups, bled (0 d), and then orally dosed 1× every […] with vehicle (5% ethanol in Neobee oil) or 25-(OH)D3 dissolved in ethanol and Neobee oil. Blood was again collected 4 hr, 24 h, and 1, 2, 3 and 4 weeks after each single, oral dose was administered, and total calcium concentrations were assessed in the serum using atomic absorption spectrometry. FIG. 2 also contains data taken after the 6th and 10th monthly dose.\nThe rats were male, Sprague-Dawley rats (9 weeks of age, n=4-6 animals/group) received from a commercial supplier. The animals were placed on a purified diet containing 0.47% calcium and allowed to acclimate for one week. […] Total calcium concentrations were assessed in the serum using atomic absorption spectrometry or a clinical analyzer (Pentra 400, Horiba ABX Diagnostics—France)."}, "[5]": {"test": "Serum total calcium after 1×/month oral administration in vitamin D-deficient rats", "assay_type": "in vivo, rat", "from_the_text": "FIG. 4 is a bar graph showing no increase in serum Ca concentration levels above the normal range occurring after exemplary 1×/month oral administration of 25-(OH)D3 in vitamin D-deficient rats. The rats were male, Sprague-Dawley rats (weanlings, n=30) received from a commercial supplier. The animals were placed in rooms that lacked light emissions in the UV range and fed diets lacking vitamin D. At 10 weeks of age, the rats were randomly assigned to 6 groups (n=5/group), bled (0 d) and then orally dosed 1× every 28 days with vehicle (5% ethanol in Neobee oil) or 25-(OH)D3 dissolved in ethanol and Neobee oil, whereby blood was again collected 4 hr, 24 hr, and 1, 2, 3 and 4 weeks after each single, oral dose was administered. Total calcium concentrations were assessed in the serum using absorption spectrometry. FIG. 4 includes data out to 10 months of dosing.\nThe rats were male, Sprague-Dawley rats (weanlings, n=4-6/group) received from a commercial supplier. […] Blood was collected at the times indicated in the graph and total calcium concentrations were assessed in the serum using atomic absorption spectrometry or a clinical analyzer (Pentra 400, Horiba ABX Diagnostics—France)."}, "[6]": {"test": "Serum total calcium after 1×/weekly oral administration in vitamin D deficient rats", "assay_type": "in vivo, rat", "settings": "FIG. 10", "from_the_text": "The rats were male, Sprague-Dawley rats (weanlings, n=4-6/group) received from a commercial supplier. The animals were placed in rooms that lacked light emissions in the UV range. The animals were fed diets lacking any vitamin D. At 10 weeks of age the animals were randomly assigned to 3 groups, and then orally dosed 1× every 7 days with vehicle (5% ethanol in Neobee oil) or 25(OH)D3 dissolved in ethanol and Neobee oil. Blood was collected at the times indicated in the graph and total calcium concentrations were assessed in the serum using atomic absorption spectrometry or a clinical analyzer (Pentra 400, Horiba ABX Diagnostics—France)."}, "[7]": {"test": "Serum 25-(OH)D3 (RIA) after 1×/month oral administration in vitamin D deficient rats", "assay_type": "in vivo, rat", "from_the_text": "FIG. 3 is a bar graph showing exemplary elevations of serum 25-(OH)D3 levels occurring after 1×/month oral administration of 25-(OH)D3 at 1, 3, 9, 30 and 100 mcg/kgBW in vitamin D deficient rats. The rats were male, Sprague-Dawley rats (weanlings, n=30) received from a commercial supplier. The animals were placed in rooms that lacked light emissions in the UV range and were fed diets lacking any vitamin D, whereby at 10 weeks of age the animals were randomly assigned to 6 groups (n=5/group), bled (0 d), and then orally dosed 1× every 28 days with vehicle (5% ethanol in Neobee oil) or 25-(OH)D3 dissolved in ethanol and Neobee oil. Blood was again collected 4 hr, 24 hr, and 1, 2, 3 and 4 weeks after each single, oral dose was administered, and serum 25-(OH)D3 concentrations were assessed using a commercially available RIA kit (DiaSorin of Stillwater, Minn.). FIG. 3 includes data taken after the 6th and 10th monthly dose.\nFIG. 7 is a bar graph illustrating the increases in serum 25(OH)D3 occurring after 1×/monthly oral administration of 25(OH)D3 at 1000 and 3000 mcg/kg body weight in vitamin D deficient rats. […] Blood was collected at the times indicated in the graph and serum 25(OH)D3 concentrations were assessed using a commercially available RIA kit (DiaSorin of Stillwater, Minn.)."}, "Solubility of 25-(OH)D3": {"test": "Solubility of 25-(OH)D3", "assay_type": "physicochemical", "from_the_text": "25-(OH)D3 can exist in its free form or as a monohydrate. 25-(OH)D3 monohydrate is crystalline."}, "[8]": {"settings": "cited from earlier work"}}, "data": [{"smiles": "C=C1CC[C@H](O)C/C1=C/C=C1\\CCCC2(C)[C@@H]([C@H](C)CCCC(C)(C)O)CC[C@@H]12", "note": "(stereo partly drawn) [25-(OH)D3, 25-hydroxy-vitamin D3]", "values": [{"measurement": "blood levels of 25(OH)D3", "setting": "[1]", "value": "above the normal range without the large fluctuations"}, {"measurement": "25-(OH)D3 levels with risk of causing a mild vitamin D intoxication", "setting": "[2]", "value": "above 500 ng/ml"}, {"measurement": "blood level concentration at which toxicity becomes a concern", "setting": "[2]", "value": "greater than 450 ng/ml"}, {"measurement": "serum 25-(OH)D3 levels", "setting": "[3]; FIG. 1, 1×/month oral, 9 and 100 mcg/kgBW, rats with normal vitamin D status, up to 6 months of dosing", "value": "values return to baseline 4 weeks after the dose is administered"}, {"measurement": "serum 25(OH)D3 circulating levels", "setting": "[3]; FIG. 5, 1×/monthly oral, 1000 and 3000 mcg/kg body weight, D-sufficient rats", "value": "circulating levels higher than normal"}, {"measurement": "serum calcium (hypercalcemia)", "setting": "[4]; FIG. 2, 1×/month oral, up to 10 months", "value": "do not cause hypercalcemia"}, {"measurement": "serum calcium", "setting": "[4]; FIG. 6, 1×/monthly oral, 1000 and 3000 mcg/kg body weight", "value": "no increase in serum calcium outside the normal range"}, {"measurement": "serum Ca concentration (hypercalcemia)", "setting": "[5]; FIG. 4, 1×/month oral, vitamin D-deficient rats, up to 10 months", "value": "do not cause hypercalcemia"}, {"measurement": "serum calcium", "setting": "[5]; FIG. 8, 1×/monthly oral, 1000 and 3000 mcg/kg body weight, vitamin D deficient rats", "value": "no increase in serum calcium outside the normal range"}, {"measurement": "serum calcium", "setting": "[6]", "value": "no increase in serum calcium outside the normal range"}, {"measurement": "serum 25-(OH)D3 levels", "setting": "[7]; FIG. 3, 1×/month oral, 1, 3, 9, 30 and 100 mcg/kgBW, vitamin D deficient rats, up to 10th monthly dose", "value": "values return to baseline 4 weeks after the dose is administered"}, {"measurement": "serum 25(OH)D3 circulating levels", "setting": "[7]; FIG. 7, 1×/monthly oral, 1000 and 3000 mcg/kg body weight, D-deficient rats", "value": "circulating levels higher than normal"}, {"measurement": "solubility", "setting": "Solubility of 25-(OH)D3; organic solvents", "value": "soluble"}, {"measurement": "solubility", "setting": "Solubility of 25-(OH)D3; water", "value": "relatively insoluble"}, {"measurement": "time to peak 25-(OH)D3 concentrations in the serum", "setting": "[8]; administered orally", "value": "about 4 hours"}, {"measurement": "lifetime in the body", "setting": "[8]; human, in vivo", "value": "25 to 32", "unit": "days"}, {"measurement": "fraction absorbed", "setting": "[8]; orally administered, in man", "value": "62-77%"}, {"measurement": "half-life", "setting": "[8]; orally administered", "value": "12 to 23", "unit": "days"}]}]}
